Results on two compounds are retold here after patent US20180236080A1, “FAST-ACTING INSULIN COMPOSITION COMPRISING A CITRIC ACID SALT” (ADOCIA, priority 2017, published 2018).

For series [1], the target named is hexameric form R6 of insulin aspart (Homo sapiens, UniProt P01308, P52D). The note with it: insulin aspart 100 U/ml, FIG. 9 and FIG. 10.
Description: The loss of the signal at 240 nm is related to a destabilization of the hexameric form R6 and the passage from R6 form to T6 form.
FIG. 9 describes the CD signal at 240 nm (deg·cm^2·dmol^−1) on the ordinate and on the abscissa:
Circular dichroism has been performed at 240 nm on the following compositions (FIG. 10):
In series [2] the target is hexameric R6 form of insulin lispro (Homo sapiens, UniProt P01308, K53P/P52K). The conditions noted are these: insulin lispro 100 IU/ml, FIG. 5 and FIG. 6.
Chain of hexameric R6 form of insulin lispro (P01308 25-54 P52K/K53P limits assumed): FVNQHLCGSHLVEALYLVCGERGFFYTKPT
Chain of hexameric R6 form of insulin lispro (P01308 90-110 limits assumed): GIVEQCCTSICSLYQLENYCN
Description: The loss of the signal at 240 nm is related to a destabilization of the hexameric R6 form and the passage from the R6 form to the T6 form.
For series [3] the following is noted: cited from earlier work.
The conditions of series [4]: at 4° C.; cited from earlier work.

Chain of hexameric form R6 of insulin aspart (P01308 25-54 P52D limits assumed): as the sequence (P01308 25-54 P52K/K53P limits assumed) above, with K28D, P29K counted along it

As to `O=C(O)CN(CCN(CC(=O)O)CC(=O)O)CC(=O)O` [EDTA], the “Impact on the CD signal at 240 nm / R6 form of insulin aspart” value in series [1] is on record as “completely deconstructs the R6 form”. Further, the “Impact on the CD signal at 240 nm / R6 form of insulin lispro” value in series [2] was “completely deconstructs the R6 form”.
For human insulin, the “Delay of action compared to a fast-acting insulin analog” value in series [3] (dissociation of hexamers into dimers and monomers, Brange J. et al. 1999) is reported as about 20 minutes. Moreover, the “Time after which a hypoglycemic effect occurs” value in series [3] (injected subcutaneously) is 60 min. The “Stability in the form of hexamers” value in series [4] was about 2 years.
